Experimental data from patent publication US20240425867A1, “NUCLEIC ACID-BASED ASSEMBLY AND USES THEREOF” (Rheinische Friedrich-Wilhelms-Universität Bonn, priority 2016, published 2024).
pIC50, pKd: −log10 of the molar value. “And” between values parts separate entries of the source, which are not always exact repeats. Equal entries are not always repeated.

Tests used:
H1838 cells [1] = experiment: Confocal microscopy of photo-triggered DxR release in cells; format: cell-based, human; conditions: DxR 40 μM, 37° C., 2 h, without UV irradiation
Method: In vitro cell imaging of the cell internalization studies were performed using fluorescence microscopy. Prior to each experiment one 70 to 80% confluent flask was trypsinised and suspended with 10 ml of cell medium. 10 μL of the cell solution was pipetted onto a haemocytometer and the cells were counted. Twenty-four hours prior to the internalization experiments approximately 10,000 NSCLC cells were seeded in 96-well glass bottom multiwell cell culture plates (MatTek® Corporation). The plates were then incubated for 24 hours at 37° C. in 5% CO2-atmosphere. […]
To verify the HyApNc-mediated selective transport of DxR to target cells and its light-triggered release from motif 4, we monitored the fluorescence signal of DxR within and outside of the cell nuclei of H1838 cells that were treated with either free DxR (as control) or with HyApNc-DxR (see Example 1 for details of DxR loading), while keeping the DxR concentrations in the bound and the unbound form fixed at 40 μM (5 μM HyApNc carrying 8 equivalents of DxR). […] When control experiments were performed with a construct lacking DMAB (HyApNcw/oAz-DxR), near-identical DxR fluorescence signals are predominantly observed in the cytosol of the cells with and without UV exposure (FIG. 24A, IV-V).

[2] = system: NCI-H1838 lung cancer cells; experiment: Cell viability (MTT) assay, dose dependent; format: cell-based; conditions: Homo sapiens, free DxR alone (control), MTT after 24 h
Method: To assess the cytotoxicity of free DxR and HyApNc-DxR in NCI-H1838 lung cancer cells, the H1838 cells (2×10^4 cells/well) were seeded in a 96 well plate and grown for 24 h. The cells were then washed with 1×PBS (200 μL) and subsequently treated with i) free DxR (as control), ii) HyApNc-DxR or iii) HyApNc.mut-DxR in a dose dependent way with a final DxR concentration ranging from 0.125μM to 50 μM per well. After 2 h of post-treatment, the cells were washed; the RPMI medium was replaced with a fresh RPMI medium, and subsequently either irradiated with UV light for 5 minutes (_=365 nm; 350 mW/cm^2), or not irradiated. Afterwards the cells were incubated for another 24 h at 37° C.
Then for both experiments, 15 μL of a 3-(4,5-dimethylthiazol-2-yl)-2,5-diphenyltetrazolium bromide (MTT) stock solution (5 mg/mL) was added to each well and the cells were incubated at 37° C. for 6 hours. After 6 h post-tretment with MTT solutions, 100 μL of the SDS-HCL solution was added to each well and mixed thoroughly with a pipette and incubated at 37° C. for an additional 12 hours. Finally the absorbance was measured at λ=570 nm by using a Tecan Infinite® M1000 PRO microplate reader.

H1838 cells [3] = conditions: DxR 8 μM, 37° C., 2 h, non-irradiated
Method: For flow cytometry analysis of HyApNc-mediated DxR uptake, the H1838 cells (1×10^5 cells/well) were seeded for 24 h at 37° C. […] The plates were then incubated for 2 h at 37° C. Afterwards, the cells were detached from the plates by trypsinization and transferred to FACS tubes. The cells were then washed twice by centrifugation with 0.5 mL buffer. Afterwards the cell pellets were resuspended in 100 μL 1×PBS buffer and cither irradiated with UV light for 5 minutes (_=365 nm, 350 mW/cm^2) or not irradiated before subjected to FACS analysis. Fluorescence emissions of the internalized DxR were recorded with a 585/42-nm band-pass filter.

cMet [4] = target: T1, cMet (Homo sapiens, UniProt P08581); experiment: Filter retention assay with 32P-labeled aptamer; format: binding; conditions: filter retention assays
T1 construct: cMet-Fc, which represents the ectodomain of cMet fused to the Fc domain of human IgG1 was purchased from R&D Systems; purchased R&D Systems
From the text: The anti-cMet aptamer trCLN3, a 40 nucleotide DNA oligonucleotide rich in guanine sequence, is known to form two intramolecular G-quadruplex structure within the G-rich segment of the aptamer. The G-quadruplex structure in trCLN3 is believed to play a role in target recognition and binding to cMet. […] See J. Vinkenborg et al., Angew Chem Int Ed. 2012, […], 9176-9180; which reference is incorporated herein in its entirety. Binding affinity of trCLN3.mut, a control sequence with a guanine double-point mutation corresponding to G7 and G25 was further verified by filter retention assays.

[5] = Serum stability in PBS-buffered fetal calf serum (PAGE of 32P-labeled aptamer); format: in vitro ADME; conditions: 10% PBS-buffered FCS, 37° C., 0 to 72 h
Method: (§1) Serum stabilities of trCLN3, its two point mutant non-binding variant trCLN3.mut and their corresponding lipid-functionalized derivatives trCLN3-L4 and trCLN3.mut-L4 were investigated in fetal calf serum (FCS) and human blood serum. For this purpose, the aptamer motifs were labeled at their 5′-end with ^32P to form radiolabeled oligonucleotides. The degradation tests of all the aptamer motifs were performed for 60-72 h at 37°° C. 6 pmol (12 μl of 0.5 μM) of the radio-labeled aptamer (5′-end-labeled with γ-^32P) was incubated in a volume of 300 μl freshly thawed PBS-buffered FCS or human blood serum (270 μl serum+30 μl 10×PBS). For each measurement, 10 μl of the samples were removed, mixed with 90 μl of gel loading buffer (80% formamide+5 mM EDTA+0.01% SDS) and subsequently stored at −20° C. Aliquots of samples were taken after indicated time intervals of 0, 0.3, 1.5, 3, 6, 24, 48, 60 and 72h respectively. The serum stability of the aptamer in FCS or in HBS at different time intervals were analyzed on a denaturing PAGE by loading 10 μl of each sample onto a 10% TAE-Urea gel and running the gels for 90 minutes at 350 V. Gels were wrapped in clingfilm and exposed to a phosphorimager screen in a closed cassette over a period of 12 h and finally the residual intact aptamer bands were analyzed by scanning the screen in a phosphorimage-scanner (FujiFilm FLA 3000). Intensities of the residual intact aptamer bands were calculated applying AIDA image analyzer software program. Serums half-lives of the selected aptamers were determined by using a half-life curve-fitting data analysis program (GraphPad Prism).

[6] = Serum stability in PBS-buffered human blood serum (PAGE of 32P-labeled aptamer); format: in vitro ADME; conditions: 10% PBS-buffered HBS, 37° C., 0 to 72 h
Method: as §1

cMet [7] = target: T1, cMet; experiment: Competitive filter-binding assay against γ-32P-labeled trCLN3; conditions: competition with γ-32P-trCLN3, cMet ~50 nM, competitor 1 μM-25 pM, 37° C.
Method: To test the effect of lipid-modification on trCLN3 binding properties, we determined IC50 values for each trCLN3 derivative by a competitive filter retention assay in which varying concentrations of unlabeled 5′-(1-dodecynyl)-functionalized trCLN3 aptamers competed with constant amounts of γ-^32P-labeled trCLN3 in binding to cMet. Two control experiments were also performed using unlabeled trCLN3 and its two point mutant variant trCLN3.mut as competitors.
First, the trCLN3 motif was 5′-end-labeled with γ-^32P ATP using T4 polynucleotide kinase. An aliquot of 20 μL solution containing 50 pmol trCLN3. 6.7 pmol γ-^32P ATP and 20 U T4 polynucleotide kinase in 1× polynucleotide kinase buffer (New England Biolabs) was incubated at 37° C. for 45 min. followed by removal of unreacted γ-^32P ATP using an Illustra G-25 microspin column (GE Healthcare. München, Germany). The purity of the radiolabeled aptamer was confirmed using a 10% PAGE-gel.
0.25 mg/ml BSA. 2 mM MgCl2 in 1×PBS, pH 7.4. […] Residual radioactivity due to cMet bound labeled aptamers was quantified using Fujifilm Fla-3000 PhosphorImager and AIDA software. The curves were fitted with GraphPadPrism 3.02 plotting non-linear regression curve and the IC50 values have been calculated assuming a competition for single binding site.

cMet [8] = target: T1, cMet; conditions: binding to HGFR (cMet); read-out: dissociation constant (Kd); cited from earlier work

T1 sequence (P08581 25-932 limits assumed): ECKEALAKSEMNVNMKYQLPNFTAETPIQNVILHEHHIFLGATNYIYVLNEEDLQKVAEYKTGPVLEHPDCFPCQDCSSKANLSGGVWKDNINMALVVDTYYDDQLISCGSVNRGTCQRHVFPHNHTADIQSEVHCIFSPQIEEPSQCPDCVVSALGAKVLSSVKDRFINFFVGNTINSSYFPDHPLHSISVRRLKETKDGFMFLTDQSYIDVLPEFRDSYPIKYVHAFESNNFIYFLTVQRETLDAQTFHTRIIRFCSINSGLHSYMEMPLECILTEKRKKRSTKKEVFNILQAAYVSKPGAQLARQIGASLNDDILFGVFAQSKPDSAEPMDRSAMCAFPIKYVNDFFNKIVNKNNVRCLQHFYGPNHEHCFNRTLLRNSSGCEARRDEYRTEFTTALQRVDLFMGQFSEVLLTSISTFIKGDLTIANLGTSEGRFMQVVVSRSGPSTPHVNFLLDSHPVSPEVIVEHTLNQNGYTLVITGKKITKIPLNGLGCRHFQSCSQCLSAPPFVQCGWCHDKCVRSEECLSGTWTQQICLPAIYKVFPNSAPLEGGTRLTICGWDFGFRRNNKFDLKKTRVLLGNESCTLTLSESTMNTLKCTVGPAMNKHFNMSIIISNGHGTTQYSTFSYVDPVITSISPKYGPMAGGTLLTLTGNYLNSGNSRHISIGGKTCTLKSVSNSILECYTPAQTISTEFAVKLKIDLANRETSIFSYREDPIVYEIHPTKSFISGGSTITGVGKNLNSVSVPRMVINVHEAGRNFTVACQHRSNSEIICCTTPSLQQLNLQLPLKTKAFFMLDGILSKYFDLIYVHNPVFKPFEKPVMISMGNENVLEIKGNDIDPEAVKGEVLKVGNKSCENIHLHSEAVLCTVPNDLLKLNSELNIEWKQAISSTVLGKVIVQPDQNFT

Compound	DxR fluorescence in cell nuclei (confocal) (H1838 cells [1])	IC50 [2]	increase in mean cellular fluorescence intensity vs equivalent dose of HyApNc-DxR or HyApNcw/oAz-DxR (H1838 cells [3]) [fold]	binding to cMet (cMet [4])	serum half-life (t1/2) [5] [h]	serum half-life (t1/2) [6] [h]	pIC50 (cMet [7])	pKd (cMet [8])
COc1cccc2c1C(=O)c1c(O)c3c(c(O)c1C2=O)C[C@@](O)(C(=O)CO)C[C@@H]3O[C@H]1C[C@H](N)[C@H](O)[C@H](C)O1 [free DxR, (7S,9S)-7-[(2R,4S,5S,6S)-4-amino-5-hydroxy-6-methyloxan-2-yl]oxy-6,9,11-trihydroxy-9-(2-hydroxyacetyl)-4-methoxy-8,10-dihydro-7H-tetracene-5,12-dione]	Strong DxR fluorescence	8 µM and 4.7 µg/mL	5	–	–	–	–	–
trCLN3.mut: non-binding control sequence of trCLN3 with guanine double-point mutation at G7 and G25 (DNA TGGATGATAGCTCGGTCGGGGTGGATGGGTTGGCAAGTCT; DNA, backbone and methylation of C not given here)	–	–	–	almost no binding	2.8	1.9	–	–
trCLN3: 40-nucleotide anti-cMet DNA aptamer, 5′-TGGATGGTAGCTCGGTCGGGGTGGGTGGGTTGGCAAGTCT-3′ (DNA, backbone and methylation of C not given here)	–	–	–	–	8.7	4.9	7.25	7.42
